US10925885B2, “Thyromimetics for the treatment of fatty liver diseases” (Metabasis Therapeutics, Inc., priority 2005, dated 2021)
“Also recorded” adds a separate entry of the source.

How the values were obtained:
[1] = tested on: liver triglycerides; test: Liver triglycerides, chronic exposure in normal rats; format: in vivo, rats (Sprague-Dawley); settings: 1 mg/kg/day continuous infusion; for Triglycerides (mg/g liver): normal Sprague-Dawley rats, subcutaneous osmotic pump, one week; for Effect on liver (hepatic) triglyceride content, in words: normal rats, systemic administration
Description: The purpose of these studies was to compare the difference in efficacy to clear liver triglyceride content between T3 and various T3 mimetics that are carboxylic acids and T3 mimetics that are phosphonic acids. In one example, T3 and Compounds 7 and 17, which differ only in that for Compound 7, the X moiety of Formula II is —P(O)OH2 and for Compound 17, X is —C(O)OH, were compared. In the same example TRIAC and Compound 6, which differ only in that for Compound 6, X is —P(O)OH2 and for TRIAC, X is —C(O)OH, were compared. Efficacy was measured by analyzing total liver triglycerides.
(§1) Methods: Normal rats (Sprague-Dawley) were maintained on a standard diet. Compounds 7, 17, 6, TRIAC or T3 were administered by continuous infusion using an osmotic pump (Alzet; subcutaneous implant) at a dose of 1 mg/kg/day. The compounds were dissolved in 0.1N NaOH solution and the pH adjusted to 7.4-8.0. The compounds were brought up to an appropriate volume using PBS and BSA to maintain solubility within the pump. The compounds were chemically stable in the excipient at 37° C. for 7 days. Body weights were measured and the change from the starting body weight was calculated. The 4.5% reported for the vehicle animals represent a 4.5% increase in body weight over the course of the experiment.
(§2) Sections of liver were removed and frozen. Liver triglycerides were analyzed following lipid extraction by the Bligh Dyer method (Bligh and Dyer, Can. J. Med. Sci. 37(8):911-7 (1959), incorporated herein by reference). Total triglycerides were analyzed in the liver extracts by an enzymatic assay (Thermo Electron Corporation). Total lipid was normalized to initial liver weight and triglyceride content was normalized to liver weight mGPDH activity was analyzed in isolated mitochondria using 2-(4-iodophenyl)-3-(4-nitrophenyl)-5-phenyl tetrazolium chloride as the terminal electron acceptor (Gardner R S, Analytical Biochemistry 59:272 (1974)). Commercially available GPDH was used in each assay as a standard (Sigma, St. Louis, Mo.).

[2] = Body weight change, chronic exposure in normal rats; format: in vivo, rats (Sprague-Dawley); settings: 1 mg/kg/day continuous infusion; for Body Weight (% change from start): normal Sprague-Dawley rats, subcutaneous osmotic pump, one week; for Effect on body weight, in words: normal rats
Experimental: as §1

[3] = tested on: mGPDH; test: Liver mGPDH activity in isolated mitochondria, normal rats; format: in vivo; settings: normal Sprague-Dawley rats, 1 mg/kg/day continuous infusion, subcutaneous osmotic pump
Experimental: as §1, §2

[4] = tested on: hepatic steatosis; test: Liver steatosis (H&E sections) in ZDF rats; format: in vivo, Zucker diabetic fatty (ZDF) rats; settings: oral, CMC suspension
Experimental: Methods: ZDF rats were maintained on a standard diet (5008). Compounds cis-13-1 or 18 were administered orally at the indicated doses using a CMC suspension. Liver steatosis was analyzed visually following H&E staining of paraffin embedded liver sections. TSH was measured using a rodent specific kit (Amersham Biosciences). At the end of the experiment, the left ventricle was cannulated with a high fidelity catheter-tip transducer (Millar) via the right carotid artery. Left ventricle pressure, its first derivative (LV dP/dt), lead I ECG, and heart rate triggered off the ECG waveform, were recorded.

[5] = tested on: liver TG; settings: thyroxine treatment, cited from earlier work
[6] = tested on: liver triglycerides; test: Liver triglycerides, chronic exposure in ob/ob mice; format: in vivo
Experimental: as §2
The purpose of these studies was to compare the difference in efficacy to clear liver triglyceride content between Compound cis-13-1 and T3 in ob/ob mice.
(§3) Methods: ob/ob mice were maintained on a standard diet. Compound cis-13-1 was administered at doses of 3, 10 and 30 mg/kg/d orally in a CMC suspension. T3, 100 nmole/kg/d, was administered as an aqueous solution subcutaneously. Liver triglycerides were analyzed as described in example A. Epididymal fat pads were removed and weighed. Clinical chemistry analysis was performed by LabCorp (San Diego, Calif.).

[7] = Epididymal fat pad weight in ob/ob mice; format: in vivo
Experimental: as §3

[8] = tested on: hepatic steatosis; test: Hepatic steatosis measured chemically and histologically in ob/ob mice; format: in vivo; settings: oral administration of cis-13-1
Experimental: as §3

[9] = tested on: thyroid-responsive genes in the liver; settings: T3-treated vs hypothyroid mice; cited from earlier work
[10] = T3 100 nmole/kg/d subcutaneously

O=P(O)(O)Cc1cc(I)c(Oc2ccc(O)c(I)c2)c(I)c1 [Compound 6]
Triglycerides (mg/g liver) [1]: 1.3 ± 0.2 mg/g liver
Effect on liver (hepatic) triglyceride content, in words [1]: significant decrease in hepatic triglyceride content
Body Weight (% change from start) [2]: 8.7 ± 0.8 % change from start
Effect on body weight, in words [2]: did not decrease body weight
Liver mGPDH activity (% vehicle) [3]: 291 ± 37 % vehicle

CC(C)c1cc(Oc2c(Cl)cc(CC(=O)O)cc2Cl)ccc1O [Compound 18]
Effect on hepatic steatosis (visual, H&E), in words [4]: visually decreased hepatic steatosis compared to control

Cc1cc(OCP(=O)(O)O)cc(C)c1Cc1ccc(O)c(C(C)C)c1 [Compound 7]
Triglycerides (mg/g liver) [1]: 1.3 ± 0.4 mg/g liver
Effect on liver (hepatic) triglyceride content, in words [1]: significant decrease in hepatic triglyceride content
Body Weight (% change from start) [2]: 9.1 ± 1.5 % change from start
Effect on body weight, in words [2]: did not decrease body weight
Liver mGPDH activity (% vehicle) [3]: 399 ± 40 % vehicle

Cc1cc(OCC(=O)O)cc(C)c1Cc1ccc(O)c(C(C)C)c1 [Compound 17]
Triglycerides (mg/g liver) [1]: 1.8 ± 0.3 mg/g liver
Effect on liver (hepatic) triglyceride content, in words [1]: significant decrease in hepatic triglyceride content
Body Weight (% change from start) [2]: −5.4 ± 1.0 % change from start
Effect on body weight, in words ([2]; 1 mg/kg/day): decreased body weight
Effect on body weight, in words ([2]; listed as compound 17, 1 mg/kg/day): loss of body weight
Liver mGPDH activity (% vehicle) [3]: 426 ± 45 % vehicle

O=C(O)Cc1cc(I)c(Oc2ccc(O)c(I)c2)c(I)c1 [TRIAC]
Triglycerides (mg/g liver) [1]: 1.5 ± 0.4 mg/g liver
Effect on liver (hepatic) triglyceride content, in words [1]: significant decrease in hepatic triglyceride content
Body Weight (% change from start) [2]: −1.7 ± 0.6 % change from start
Effect on body weight, in words ([2]; 1 mg/kg/day): decreased body weight; also recorded: loss of body weight
Liver mGPDH activity (% vehicle) [3]: 384 ± 28 % vehicle

N[C@@H](Cc1cc(I)c(Oc2cc(I)c(O)c(I)c2)c(I)c1)C(=O)O [thyroxine, 3,3′,5,5′-tetraiodothyronine]
Decrease of liver TG ([5]; after one week): 5 fold
Rebound of liver TG ([5]; by the end of five weeks): 4 fold

3,3′,5′-triiodothyronine [Compound T3]
Triglycerides (mg/g liver) [1]: 3.6 ± 0.6 mg/g liver
Effect on liver (hepatic) triglyceride content, in words ([1]; 1 mg/kg/day): did not demonstrate a decrease in hepatic triglyceride content; also recorded: did not significantly decrease liver triglyceride content
Body Weight (% change from start) [2]: −8.2 ± 1.5 % change from start
Effect on body weight, in words ([2]; 1 mg/kg/day): decreased body weight; also recorded: loss of body weight
Liver mGPDH activity (% vehicle) [3]: 406 ± 54 % vehicle
Liver Trigs [6, 10]: 86 ± 5 mg/g
Effect on liver (hepatic) triglyceride content, in words ([6]; cis-13-1 oral 3, 10, 30 mg/kg/d, T3 100 nmole/kg/d s.c.): did not significantly decrease liver triglyceride content
EFP weight [7, 10]: 2.0 ± 0.1 g
Effect on epididymal fat pad (EFP) weight, in words ([7]; cis-13-1 oral, T3 100 nmole/kg/d s.c.): significantly decreased EFP weight; also recorded: significantly decreased epididymal fat pad weight
Effect on hepatic steatosis measured chemically and histologically, in words [8]: no significant effect on hepatic steatosis
Fold, AM2 receptor [9]: 0.3 Fold
Fold, Actin, α cardiac [9]: 0.3 Fold
Fold, Actin, γ-enteric smooth muscle [9]: 0.3 Fold
Fold, Arylsulfatase A [9]: 0.3 Fold
Fold, B61 [9]: 2.3 Fold
Fold, Bcl-3 [9]: 2.5 Fold
Fold, C11 protein [9]: 0.3 Fold
Fold, Capping protein a-subunit [9]: 0.3 Fold
Fold, Carbonyl reductase (Cbr1) [9]: 3.3 Fold
Fold, Chromodomain-helicase-DNA binding protein CHD-1 [9]: 0.4 Fold
Fold, Cyp4a-10 [9]: 0.3 Fold
Fold, Cytoskeletal β-actin [9]: 0.3 Fold
Fold, EST [9]: 0.4 Fold
Fold, FK506-binding protein (FKBP23) [9]: 0.2 Fold
Fold, FK506-binding protein (FKBP65) [9]: 0.3 Fold
Fold, Fatty acid transport protein (FATP) [9]: 1.8 Fold
Fold, Glucose regulated protein 78 [9]: 0.3 Fold
Fold, Glucose-6-phosphatase [9]: 3.8 Fold
Fold, Glycerophosphate dehydrogenase [9]: 0.3 Fold
Fold, H-2 class I histocompatibility antigen [9]: 0.3 Fold
Fold, Inhibitory G protein of adenylate cyclase, α chain [9]: 0.3 Fold
Fold, Insulin-like growth factor binding protein 1 precursor [9]: 3.0 Fold
Fold, Kinesin-like protein (KipIp) [9]: 2.0 Fold
Fold, Lamin A [9]: 0.3 Fold
Fold, Lupus la protein homolog [9]: 0.3 Fold
Fold, Major urinary protein 2 precursor [9]: 3.9 Fold
Fold, Membrane-type matrix metalloproteinase [9]: 0.2 Fold
Fold, Mitochondrial genome [9]: 0.4 Fold
Fold, Murine vik5variant in the kinase [9]: 0.1 Fold
Fold, Myosin binding protein H (MyBP-H) [9]: 2.2 Fold
Fold, NfiB1-protein (exon 1-12) [9]: 0.3 Fold
Fold, Nuclear-encoded mitochondrial acyltransferase [9]: 0.2 Fold
Fold, PHAS-II [9]: 0.3 Fold
Fold, Protein kinase C inhibitor (mPKCl) [9]: 2.1 Fold
Fold, Protein kinase C, Θ type [9]: 0.3 Fold
Fold, Protein kinase ζ [9]: 0.5 Fold
Fold, Putative ATP-dependent RNA helicase PL10 [9]: 0.3 Fold
Fold, Putative SH3-containing protein SH3P12 [9]: 0.3 Fold
Fold, Putative transcription factor of the insulin gene [9]: 0.3 Fold
Fold, Rho-associated, coiled-coil forming protein kinase p160 [9]: 0.2 Fold
Fold, Serine/threonine kinase (Akt2) [9]: 0.3 Fold
Fold, Skeletal muscle actin [9]: 0.3 Fold
Fold, Spot 14 gene [9]: 8.8 Fold
Fold, T-complex protein 1, d subunit [9]: 0.3 Fold
Fold, TGN38B [9]: 0.3 Fold
Fold, Terminal deoxynucleotidyltransferase [9]: 0.3 Fold
Fold, Thymic stromal stimulating factor [9]: 0.3 Fold
Fold, Ubiquitin-activating enzyme E1 X [9]: 0.3 Fold
Fold, Virus-like (VL30) retrotransposon BVL-1 [9]: 0.3 Fold
Fold, ece1 (endothelin-converting enzyme) [9]: 0.2 Fold
Fold, α-2,3-Sialyltransferase [9]: 0.3 Fold
Fold, α-Adaptin [9]: 0.3 Fold
Fold, α-Globin [9]: 2.7 Fold
Fold, β-2 Adrenergic receptor [9]: 3.4 Fold
Fold, β-Galactoside α 2,6-sialyltransferase [9]: 0.3 Fold
Fold, β-Globin [9]: 2.3 Fold
